Test results taken from patent US20250032454A1, “KDM1A INHIBITORS FOR THE TREATMENT OF DISEASE” (Imago Biosciences, Inc., priority 2021, published 2025).
Read-outs that look alike come from different tables or passages of the source.

Tests used:
LSD1 = LSD1 (Homo sapiens, UniProt O60341); experiment: LSD1 fluorescence coupling enzyme assay (HRP/Amplex Red, H3(1-21)K4me2 peptide), 10-dose IC50; format: biochemical; details: 10 μM histone H3(1-21)K4me2 peptide substrate, 3-fold serial dilution from 100 μM
Text: Assaying the inhibition of KDM1A can be determined in vitro, in cultured cells, and in animals. There are a variety of spectrophotometric methods to detect the results of demethylation of methylated lysines, viz., detecting the products of KDM1A demethylase oxidative activity on a peptide fragment of at least 18 amino acids representing the N-terminus of the histone H3 substrate that contains a monomethyl at the fourth lysine residue. Hydrogen peroxide, one product of the KDM1A demethylase reaction, reacts with horseradish peroxidase and dihydroxyphenoxazine (ADHP) to produce the fluorescent compound resorufin (excitation=530-560 nm: emission=590 nm). The KDM1A demethylase enzyme activity can be obtained from mammalian cells or tissues expressing KDM1A from an endogenous or recombinant gene and purified or assayed from a whole cell extract. These methods can be used to determine the concentration of the disclosed compounds can inhibit fifty percent of the enzyme activity (IC50).
Alternatively, the production of H2O2 during the KDM1A reaction can be detected fluometrically. In this system, the production of H2O2 is detected in the HDM assay buffer after exposure to substrate, co-factor and enzyme using ADHP (10-Acetyl-3, 7-dihydroxyphenoxazine) as a fluorogenic substrate for horse radish peroxidase (HRP). […] The florescent product is resorufin. Sensitivity can be as low as 10-15 M of target protein. The signal is read using a fluorescence microplate reader at excitation and emission wavelengths of 530-560 nm and 590 nm, respectively.
Compounds were tested in a 10-dose IC50 mode fluorescence coupling enzyme assay with 3-fold serial dilution in duplicate starting at 100 μM. The production of FAD-dependent H2O2 as a result of demethylase activity of LSD1 on 10 μM histone H3(1-21)K4me2 peptide substrate was measured by coupling with HRP and Amplex Red to yield resorufin (fluorescence measured at Ex/Em=535/590 nm on EnVision, Perkin Elmer).

MV4;11 cells = experiment: Cell Titer-Glo cell growth inhibition in MV4;11 cell line (Day 5 / Day 10); format: cell-based
Protocol: Cell growth inhibition against MV4;11 cells was confirmed for the synthetic compounds. The Cell Titer-Glo Luminescent Cell Viability Assay (Promega, USA) was used to determine the number of viable cells in culture based on quantitation of the ATP present, which signals the presence of metabolically active cells. This assay was run in a 96-well plate format arrayed in a 10-point dose curve, ranging from 0 to 50 µM with 4-fold dilutions for each compound. Cells are seeded on Day 0 at 3750 cells per well. At Day 5, a portion of each well is assayed for viability according to the Cell Titer-Glo protocol. Briefly, cells/plates were centrifuged at 1100×g for 5 minutes. 100 μL of media was removed from each well and replaced with 100 μL of CellTiter-Glo. The plates were shaken at room temperature for 10 minutes and measured on a luminescence plate reader. Another portion of each well from the Day 5 plate is used to seed a new 96 plate containing fresh compound and media set up in the equivalent 10-point dose curve array in order to continue the cell growth inhibition assay for another 5 days. A final timepoint is collected at Day 10 using the Cell Titer-Glo protocol. Luminescence was detected on an En Vision® Multilabel Plate Reader (Perkin Elmer, Waltham, Mass.) and IC50 determination was made using Graph Pad Prism software.

[1] = Day 5, read-out: Cell Titer-Glo IC50 (5 d)
[2] = Homo sapiens, MV4-11, 120 h, Day 5, read-out: Cell Titer-Glo IC50 (5 d)
[3] = Homo sapiens, MV4-11, 240 h, Day 10, read-out: Cell Titer-Glo IC50 (10 d)

| Compound | IC50 (LSD1) | IC50 (MV4;11 cells; [1]) | IC50 (MV4;11 cells; [2]) | IC50 (MV4;11 cells; [3]) | IC50 (MV4;11 cells; Day 10, read-out: Cell Titer-Glo IC50 (10 d)) |
| --- | --- | --- | --- | --- | --- |
| 4-(3-(4-aminopiperidin-1-yl)-1-(p-tolyl)-1H-pyrazol-5-yl)-2-fluorobenzonitrile/4-(5-(4-aminopiperidin-1-yl)-1-(p-tolyl)-1H-pyrazol-3-yl)-2-fluorobenzonitrile [Example 34] | < 500 nM | 1000 to 10000 nM | – | – | – |
| COc1ccc(-n2nc(NCC3CC3N)cc2-c2ccc(C#N)c(F)c2)cc1 (racemic) [Example 29, (±)-trans-4-(3-(((2-aminocyclopropyl)methyl)amino)-1-(4-methoxyphenyl)-1H-pyrazol-5-yl)-2-fluorobenzonitrile] | 1000 to 10000 nM | – | 1000 to 10000 nM | 1000 to 10000 nM | – |
| Cn1ncc2cc(-n3nc(NC[C@H]4CCC[C@@H](N)C4)cc3-c3ccc(C#N)c(F)c3)ccc21 (single isomer, unassigned) [Example 7a] | 500 to 1000 nM | – | 1000 to 10000 nM | – | – |
| Cn1cc2cc(-n3nc(NC[C@@H]4CCCNC4)cc3-c3ccc(C#N)c(F)c3)ccc2n1 (single isomer, unassigned) [Example 9a] | 1000 to 10000 nM | – | < 500 nM | – | – |
| COC1CCN(c2ccc(-n3nc(NC[C@H]4CCC[C@H](N)C4)cc3-c3ccc(C#N)c(F)c3)nc2)CC1 [Example 120, 4-(3-((((1S,3S)-3-aminocyclohexyl)methyl)amino)-1-(5-(4-methoxypiperidin-1-yl)pyridin-2-yl)-1H-pyrazol-5-yl)-2-fluorobenzonitrile 2,2,2-trifluoroacetate] | < 500 nM | – | – | – | – |
| N#Cc1ccc(-c2cc(NCC34CCN(CC3)CC4)nn2-c2ccc(N3CC4CC3CS4(=O)=O)cc2)cc1F (stereo not drawn) [Example 121, 4-(1-(4-(2,2-Dioxido-2-thia-5-azabicyclo[2.2.1]heptan-5-yl)phenyl)-3-((quinuclidin-4-ylmethyl)amino)-1H-pyrazol-5-yl)-2-fluorobenzonitrile 2,2,2-trifluoroacetate] | < 500 nM | – | – | – | – |
| CC(C)Oc1cc(N2CCS(=O)(=O)CC2)ccc1-n1nc(NCC23CCN(CC2)CC3)cc1-c1ccc(C#N)c(F)c1 [Example 122, 4-(1-(4-(1,1-Dioxidothiomorpholino)-2-isopropoxyphenyl)-3-((quinuclidin-4-ylmethyl)amino)-1H-pyrazol-5-yl)-2-fluorobenzonitrile 2,2,2-trifluoroacetate] | 1000 to 10000 nM | – | – | – | – |
| N#Cc1ccc(-c2cc(NCC34CCN(CC3)CC4)nn2-c2ccc3c(c2)NCCO3)cc1F [Example 123, 4-(1-(3,4-Dihydro-2H-benzo[b][1,4]oxazin-6-yl)-3-((quinuclidin-4-ylmethyl)amino)-1H-pyrazol-5-yl)-2-fluorobenzonitrile 2,2,2-trifluoroacetate] | < 500 nM | – | – | – | – |
| COC1CCN(c2ccc(-n3nc(NCC45CCN(CC4)CC5)cc3-c3ccc(C#N)c(F)c3)cc2)CC1 [Example 124, 2-Fluoro-4-(1-(4-(4-methoxypiperidin-1-yl)phenyl)-3-((quinuclidin-4-ylmethyl)amino)-1H-pyrazol-5-yl)benzo-nitrile 2,2,2-trifluoroacetate] | < 500 nM | – | – | – | – |
| COC1(C)CCN(c2ccc(-n3nc(NCC45CCN(CC4)CC5)cc3-c3ccc(C#N)c(F)c3)cc2)CC1 [Example 125, 2-Fluoro-4-(1-(4-(4-methoxy-4-methylpiperidin-1-yl)phenyl)-3-((quinuclidin-4-ylmethyl)amino)-1H-pyrazol-5-yl)benzonitrile 2,2,2-trifluoroacetate] | < 500 nM | – | – | – | – |
| COc1cc(N2CCS(=O)(=O)CC2)ccc1-n1nc(NCC23CCN(CC2)CC3)cc1-c1ccc(C#N)c(F)c1 [Example 126, 4-(1-(4-(1,1-Dioxidothiomorpholino)-2-methoxyphenyl)-3-((quinuclidin-4-ylmethyl)amino)-1H-pyrazol-5-yl)-2-fluorobenzonitrile 2,2,2-trifluoroacetate] | < 500 nM | – | – | – | – |
| CN1CCN(c2ccc(-n3nc(NC[C@H]4CCC[C@H](NC(=N)N)C4)cc3-c3ccc(C#N)c(F)c3)cc2)CC1 [Example 127, 1-((1S,3S)-3-(((5-(4-cyano-3-fluorophenyl)-1-(4-(4-methylpiperazin-1-yl)phenyl)-1H-pyrazol-3-yl)amino)methyl)cyclohexyl)guanidine 2,2,2-trifluoroacetate] | < 500 nM | – | – | – | – |
| COC1CCN(c2ccc(-n3nc(NC[C@H]4CCC[C@H](NC(=N)N)C4)cc3-c3ccc(C#N)c(F)c3)cc2)CC1 [Example 128, 1-((1S,3S)-3-(((5-(4-cyano-3-fluorophenyl)-1-(4-(4-methoxypiperidin-1-yl)phenyl)-1H-pyrazol-3-yl)amino)methyl)cyclohexyl)guanidine] | < 500 nM | – | – | – | – |

Other lines, results leading:

| IC50 (LSD1) | IC50 (MV4;11 cells; [1]) | IC50 (MV4;11 cells; [2]) | IC50 (MV4;11 cells; [3]) | IC50 (MV4;11 cells; Day 10, read-out: Cell Titer-Glo IC50 (10 d)) | Compound |
| --- | --- | --- | --- | --- | --- |
| < 500 nM | – | 1000 to 10000 nM | – | – | COc1ccc(-n2nc(NCC3CC[C@@H](N)C3)cc2-c2ccc(C#N)c(F)c2)cc1 (mixture of isomers) [Example 4, rac-4-(3-((((1S,3R)-3-aminocyclopentyl)methyl)amino)-1-(4-methoxyphenyl)-1H-pyrazol-5-yl)-2-fluorobenzonitrile] |
| < 500 nM | – | < 500 nM | – | – | COc1ccc(-n2nc(NC[C@H]3CCC[C@@H](N)C3)cc2-c2ccc(C#N)c(F)c2)cc1 (racemic) [Example 5, rac-4-(3-((((15,3R)-3-aminocyclohexyl)methyl)amino)-1-(4-methoxyphenyl)-1H-pyrazol-5-yl)-2-fluorobenzonitrile] |
| < 500 nM | – | < 500 nM | – | – | Cn1ncc2cc(-n3nc(NCC4CCCC(N)C4)cc3-c3ccc(C#N)c(F)c3)ccc21 (racemic) [Example 7, rac-4-(3-(((3-aminocyclohexyl)methyl)amino)-1-(1-methyl-1H-indazol-5-yl)-1H-pyrazol-5-yl)-2-fluorobenzonitrile] |
| < 500 nM | – | < 500 nM | – | – | COc1ccc(-n2nc(NC[C@H]3CC[C@@H](N)C3)cc2-c2ccc(C#N)c(F)c2)cc1 (single isomer, unassigned) [Example 4a] |
| < 500 nM | – | 500 to 1000 nM | – | – | COc1ccc(-n2nc(NC[C@@H]3CC[C@H](N)C3)cc2-c2ccc(C#N)c(F)c2)cc1 (single isomer, unassigned) [Example 4b] |
| < 500 nM | – | 500 to 1000 nM | – | – | COc1ccc(-n2nc(NC[C@H]3CCC[C@@H](N)C3)cc2-c2ccc(C#N)c(F)c2)cc1 (single isomer, unassigned) [Example 5a] |
| < 500 nM | – | < 500 nM | – | – | COc1ccc(-n2nc(NC[C@@H]3CCC[C@H](N)C3)cc2-c2ccc(C#N)c(F)c2)cc1 (single isomer, unassigned) [Example 5b] |
| < 500 nM | – | 500 to 1000 nM | – | – | Cn1ncc2cc(-n3nc(NC[C@@H]4CCC[C@H](N)C4)cc3-c3ccc(C#N)c(F)c3)ccc21 (single isomer, unassigned) [Example 7b] |
| < 500 nM | – | < 500 nM | < 500 nM | – | Cn1ncc2cc(-n3nc(NC[C@H]4CCC[C@H](N)C4)cc3-c3ccc(C#N)c(F)c3)ccc21 (single isomer, unassigned) [Example 7c] |
| < 500 nM | – | < 500 nM | < 500 nM | – | Cn1ncc2cc(-n3nc(NC[C@@H]4CCC[C@@H](N)C4)cc3-c3ccc(C#N)c(F)c3)ccc21 (single isomer, unassigned) [Example 7d] |
| < 500 nM | – | < 500 nM | – | – | Cn1cc2cc(-n3nc(NC[C@H]4CCCNC4)cc3-c3ccc(C#N)c(F)c3)ccc2n1 (single isomer, unassigned) [Example 9b] |
| < 500 nM | – | < 500 nM | < 500 nM | – | COc1ccc(-n2nc(NCC3CCCNCC3)cc2-c2ccc(C#N)c(F)c2)cc1 (single isomer, unassigned) [Example 22a, 4-(3-((azepan-4-ylmethyl)amino)-1-(4-methoxyphenyl)-1H-pyrazol-5-yl)-2-fluorobenzonitrile] |
| < 500 nM | 500 to 1000 nM | – | – | < 500 nM | COc1ccc(-n2nc(NCC3CCCNCC3)cc2-c2ccc(C#N)c(F)c2)cc1 (single isomer, unassigned) [Example 22b, 4-(3-((azepan-4-ylmethyl)amino)-1-(4-methoxyphenyl)-1H-pyrazol-5-yl)-2-fluorobenzonitrile] |
